In patent publication EP0243336A1, “Pharmaceutical compositions for the treatment of intermittent claudication” (U C B, S.A., priority 1986, dated 1987):

Columns and labels:
[1] = system: patients présentant une artériopathie oblitérante périphérique aux stades cliniques IIa et IIb; assay: Clinical trial: pain-free walking distance on treadmill before and after six weeks of isovolemic then hypervolemic hemodilution; assay type: in vivo
Source text: Cet exemple décrit un essai clinique effectué sur deux groupes A et B de 9 patients présentant une artériopathie oblitérante périphérique aux stades cliniques IIa et IIb. Tous ces patients présentaient des oblitérations d'un ou plusieurs jours ou des microangiopathies des membres inférieurs. En outre, la fluidité du sang de ces patients était trés limitée.
Les patients du groupe A (âge moyen: 60 ans) reçoivent un traitement combiné par dilution isovolémique et dilution hypervolémique au moyen de HES 200 (poids moléculaire 200.000) et de piracétam.
A cet effet, en 4 à 5 séances, on prélève chaque fois 500 ml de sang que l'on remplace par une perfusion isovolémique de 500 ml d'une solution aqueuse stérile à 10% de HES 200 contenant 12 g de piracétam. Le rapport en poids entre le HES 200 et le piracétam est donc de 4,1 : 1.
Entre chaque séance de perfusion isovolémique s'écoule un intervalle de 2 à 3 jours pendant lequel les patients reçoivent 12 g de piracétam par jour sous forme d'une suspension buvable.
Ensuite, on administre trois fois par semaine, en perfusion hypervolémique, 500 ml de la solution à 10% de HES 200 contenant 12 g de piracétam.
Le groupe B constitue le groupe témoin et les patients de ce groupe (âge moyen: 60 ans) reçoivent le même traitement, mais sans addition de piracétam.

[2] = system: patients présentant une artériopathie oblitérante périphérique aux stades cliniques IIa et IIb; assay: Clinical trial: hemorheological parameters (blood fluidity, erythrocyte aggregation); assay type: in vivo; conditions: after treatment; piracétam given together with HES 200
Source text: Parallèlement au traitement, on a déterminé avant et après celui-ci la fluidité du sang des patients étudiés.
Cet exemple décrit un essai clinique effectué sur deux groupes A et B de 9 patients présentant une artériopathie oblitérante périphérique aux stades cliniques IIa et IIb. […] En outre, la fluidité du sang de ces patients était trés limitée.
Dans les deux groupes de patients, on a également suivi l'évolution de divers paramètres hémorhéologiques.

## NC(=O)CN1CCCC1=O [piracétam, 2-oxo-1-pyrrolidineacétamide]
[1]; 12 g piracétam added to 500 ml of 10% HES 200
  temps de claudication et douleurs: nette diminution
[1]; 12 g piracétam added to 500 ml of 10% HES 200, versus the same without piracétam
  distance moyenne de marche sans douleur: augmente de manière trés significative
[2]
  fluidité du sang: la meilleure
